Values of other authors, collected in US10196337B2, “Processes for the preparation of hydroxylated cyclohexyl compounds” (priority 2016, dated 2019).

Tested on: A2780 ovarian cancer cell line
Conditions: compounds isolated from bark extract of Pleiogynium timorense, literature ref. 1, read-out: IC50 against the A2780 ovarian cancer cell line

**Q.** With pleiogenone B [compound 2] as the molecule, how does the IC50 read?
**A.** The IC50 was 700 nM.

**Q.** For pleiogenone C [compound 3], which IC50 is on record?
**A.** Its IC50 is 800 nM.

**Q.** Which IC50 does the source give for `CCCCCCCC/C=C\CCCCCCC[C@]1(O)C(=O)C=C[C@H](O)[C@H]1O` [compound 1, pleiogenone A] here?
**A.** Its IC50 is 800 nM.
